In ChEMBL document CHEMBL1201862, “PubChem BioAssay data set” (2004):
Activity calls are given as the source filed them.

Key:
[1] = cells; assay type: functional, cell-based
[2] = cells; assay type: functional, cell-based; remark: listed apart in the source
[3] = target: T1, Fatty acid synthase (Homo sapiens, UniProt P49327); assay: FAS thioesterase domain inhibitors, dose response, biochemical, endpoint fluorescence intensity, uHTS hits (AID 624327); assay type: functional;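 further: fluorescence from hydrolysis of an O-methyl fluorescein acyl ester substrate by the enzyme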
T1 sequence (P49327 whole entry, the tested form may be a part): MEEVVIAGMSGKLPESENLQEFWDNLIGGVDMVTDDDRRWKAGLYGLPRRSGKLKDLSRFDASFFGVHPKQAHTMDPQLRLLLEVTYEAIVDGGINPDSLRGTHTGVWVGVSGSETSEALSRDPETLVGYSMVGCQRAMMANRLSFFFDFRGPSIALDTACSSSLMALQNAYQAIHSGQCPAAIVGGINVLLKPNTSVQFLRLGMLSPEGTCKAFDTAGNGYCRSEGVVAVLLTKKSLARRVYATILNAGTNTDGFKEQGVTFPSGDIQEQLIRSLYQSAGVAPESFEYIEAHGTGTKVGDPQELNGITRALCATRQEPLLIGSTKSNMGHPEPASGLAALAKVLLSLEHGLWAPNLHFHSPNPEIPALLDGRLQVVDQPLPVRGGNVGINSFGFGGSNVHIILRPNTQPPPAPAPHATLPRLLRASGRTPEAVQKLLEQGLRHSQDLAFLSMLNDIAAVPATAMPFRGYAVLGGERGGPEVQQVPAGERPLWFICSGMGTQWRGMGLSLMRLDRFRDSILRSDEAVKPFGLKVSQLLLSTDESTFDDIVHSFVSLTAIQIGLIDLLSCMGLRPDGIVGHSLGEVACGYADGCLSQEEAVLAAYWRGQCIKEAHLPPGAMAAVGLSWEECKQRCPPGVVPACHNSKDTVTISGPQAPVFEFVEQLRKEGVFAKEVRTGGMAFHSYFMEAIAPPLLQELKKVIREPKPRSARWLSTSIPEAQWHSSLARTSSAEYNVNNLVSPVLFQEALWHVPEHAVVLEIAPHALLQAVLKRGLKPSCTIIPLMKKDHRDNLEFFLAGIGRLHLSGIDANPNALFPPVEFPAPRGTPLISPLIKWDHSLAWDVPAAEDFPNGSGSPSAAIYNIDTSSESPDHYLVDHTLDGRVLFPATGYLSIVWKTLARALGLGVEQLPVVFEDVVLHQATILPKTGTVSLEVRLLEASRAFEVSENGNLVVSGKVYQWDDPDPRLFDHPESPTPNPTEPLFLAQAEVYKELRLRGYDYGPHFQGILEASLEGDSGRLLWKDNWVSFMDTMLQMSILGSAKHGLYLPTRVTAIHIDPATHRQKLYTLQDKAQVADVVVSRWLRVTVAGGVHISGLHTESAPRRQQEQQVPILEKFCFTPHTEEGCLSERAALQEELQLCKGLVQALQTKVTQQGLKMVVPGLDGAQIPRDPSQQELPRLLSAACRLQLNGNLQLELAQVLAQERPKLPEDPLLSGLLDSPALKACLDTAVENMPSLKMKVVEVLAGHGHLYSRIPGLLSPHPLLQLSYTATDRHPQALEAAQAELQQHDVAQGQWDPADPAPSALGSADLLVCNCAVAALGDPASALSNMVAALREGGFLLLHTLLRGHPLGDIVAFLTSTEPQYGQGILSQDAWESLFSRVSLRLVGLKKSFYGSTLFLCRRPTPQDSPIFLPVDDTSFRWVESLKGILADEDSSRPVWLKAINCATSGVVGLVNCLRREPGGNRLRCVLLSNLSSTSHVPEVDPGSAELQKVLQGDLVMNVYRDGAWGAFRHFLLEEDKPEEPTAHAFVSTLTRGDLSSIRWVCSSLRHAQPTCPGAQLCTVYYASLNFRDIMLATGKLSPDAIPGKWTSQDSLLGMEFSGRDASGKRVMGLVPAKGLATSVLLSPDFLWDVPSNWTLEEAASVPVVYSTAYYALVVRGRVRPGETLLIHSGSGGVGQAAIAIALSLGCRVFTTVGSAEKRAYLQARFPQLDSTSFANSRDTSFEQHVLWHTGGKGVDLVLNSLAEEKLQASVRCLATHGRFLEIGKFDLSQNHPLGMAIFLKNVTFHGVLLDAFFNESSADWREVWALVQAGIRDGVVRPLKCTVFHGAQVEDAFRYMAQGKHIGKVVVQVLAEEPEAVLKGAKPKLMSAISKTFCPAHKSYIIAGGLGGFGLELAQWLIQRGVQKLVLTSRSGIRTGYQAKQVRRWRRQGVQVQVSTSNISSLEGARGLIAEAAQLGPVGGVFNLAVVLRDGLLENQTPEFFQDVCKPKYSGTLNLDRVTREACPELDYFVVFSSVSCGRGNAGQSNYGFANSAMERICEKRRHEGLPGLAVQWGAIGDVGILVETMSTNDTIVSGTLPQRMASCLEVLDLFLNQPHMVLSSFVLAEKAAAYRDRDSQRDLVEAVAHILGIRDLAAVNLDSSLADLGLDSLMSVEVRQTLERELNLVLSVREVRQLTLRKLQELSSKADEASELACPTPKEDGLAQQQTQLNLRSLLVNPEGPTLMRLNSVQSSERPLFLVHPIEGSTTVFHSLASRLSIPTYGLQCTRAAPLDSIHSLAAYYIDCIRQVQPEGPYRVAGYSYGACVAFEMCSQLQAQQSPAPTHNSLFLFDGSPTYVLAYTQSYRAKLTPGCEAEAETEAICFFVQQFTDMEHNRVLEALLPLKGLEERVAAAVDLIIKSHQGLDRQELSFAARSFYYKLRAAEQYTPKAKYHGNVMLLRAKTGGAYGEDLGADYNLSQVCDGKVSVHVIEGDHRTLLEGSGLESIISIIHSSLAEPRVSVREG

[4] = target: T1, Fatty acid synthase; assay: FAS thioesterase domain inhibitors, dose response, biochemical, kinetic fluorescence intensity (AID 624326); assay type: functional;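 further: rate of fluorescence rise from hydrolysis of a fluorogenic O-methyl fluorescein ester substrate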
[5] = target: T2, Protein skinhead-1 (Caenorhabditis elegans, UniProt P34707); assay type: functional
T2 sequence (P34707 whole entry): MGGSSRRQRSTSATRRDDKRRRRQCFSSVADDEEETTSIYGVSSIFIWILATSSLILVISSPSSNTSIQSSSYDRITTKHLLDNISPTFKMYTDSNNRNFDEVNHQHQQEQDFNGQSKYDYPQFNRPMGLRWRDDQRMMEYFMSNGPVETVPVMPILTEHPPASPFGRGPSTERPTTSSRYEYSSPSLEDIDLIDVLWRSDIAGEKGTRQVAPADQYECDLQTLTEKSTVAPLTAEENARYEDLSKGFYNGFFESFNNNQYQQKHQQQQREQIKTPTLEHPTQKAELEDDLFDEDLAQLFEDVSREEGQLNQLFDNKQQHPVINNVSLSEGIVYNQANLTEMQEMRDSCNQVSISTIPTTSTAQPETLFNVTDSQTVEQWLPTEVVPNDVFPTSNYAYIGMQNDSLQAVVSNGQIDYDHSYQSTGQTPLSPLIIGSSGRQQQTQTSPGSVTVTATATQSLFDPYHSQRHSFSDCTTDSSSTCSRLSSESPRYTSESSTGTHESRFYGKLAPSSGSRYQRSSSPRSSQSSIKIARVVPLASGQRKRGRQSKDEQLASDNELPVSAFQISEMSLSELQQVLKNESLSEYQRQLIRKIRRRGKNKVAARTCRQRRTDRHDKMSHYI

[6] = target: T3, Short transient receptor potential channel 4 (Mus musculus, UniProt Q9QUQ5); assay: mouse TRPC4 channel activators, dose response, cell-based, HEK293 TRPC4/mu-opioid, Fluo-4 calcium (AID 434937); assay type: functional
T3 sequence (Q9QUQ5 whole entry): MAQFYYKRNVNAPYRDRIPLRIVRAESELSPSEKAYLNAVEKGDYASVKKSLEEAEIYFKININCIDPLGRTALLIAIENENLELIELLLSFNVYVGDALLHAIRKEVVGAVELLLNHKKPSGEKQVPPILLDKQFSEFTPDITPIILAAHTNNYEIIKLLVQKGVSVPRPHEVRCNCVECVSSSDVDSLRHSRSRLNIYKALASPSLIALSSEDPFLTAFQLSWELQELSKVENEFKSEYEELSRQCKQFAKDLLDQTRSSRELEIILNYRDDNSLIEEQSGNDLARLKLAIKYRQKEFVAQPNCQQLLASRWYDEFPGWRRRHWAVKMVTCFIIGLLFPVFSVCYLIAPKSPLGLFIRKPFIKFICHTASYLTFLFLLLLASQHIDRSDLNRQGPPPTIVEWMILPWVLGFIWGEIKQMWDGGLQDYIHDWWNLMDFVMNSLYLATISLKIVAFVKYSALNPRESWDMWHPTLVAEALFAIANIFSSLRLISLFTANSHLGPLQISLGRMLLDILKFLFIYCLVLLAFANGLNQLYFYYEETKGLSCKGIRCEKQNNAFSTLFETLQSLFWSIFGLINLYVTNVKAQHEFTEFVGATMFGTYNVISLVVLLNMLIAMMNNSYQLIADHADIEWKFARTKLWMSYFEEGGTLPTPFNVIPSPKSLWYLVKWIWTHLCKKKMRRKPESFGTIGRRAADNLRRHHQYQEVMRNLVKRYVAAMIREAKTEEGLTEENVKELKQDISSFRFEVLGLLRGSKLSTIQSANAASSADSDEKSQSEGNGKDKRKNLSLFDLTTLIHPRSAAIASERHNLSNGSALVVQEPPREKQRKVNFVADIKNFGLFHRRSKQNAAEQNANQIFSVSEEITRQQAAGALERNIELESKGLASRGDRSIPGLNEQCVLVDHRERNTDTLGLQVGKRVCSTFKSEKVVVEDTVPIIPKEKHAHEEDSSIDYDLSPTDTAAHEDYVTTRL

[7] = test system: Streptococcus sp. 'group A'; assay: growth inhibition of control SK(-) GAS strain, dose response, counter-screen for streptokinase expression inhibitor project, luminescence, kanamycin, BacTiterGlo, confirmation (AID 1900); assay type: functional, organism-based
[8] = test system: Streptococcus; assay: Group A Streptococcus viability loss, dose response, counter-screen for streptokinase expression inhibitor project, luminescence, BacTiterGlo (AID 1915); assay type: functional, organism-based;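 further: potency for reduction of bacterial viability or growth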
[9] = Shn3 3'UTR reporter inhibitors, dose response, cell-based, Clone20 osteoblasts, firefly luciferase, cherry-picked (AID 624132); assay type: functional;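 further: firefly luciferase luminescence from reporter carrying the Shn3 3'UTR in osteoblasts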
[10] = control 3'UTR Renilla luciferase suppression, dose response, counter-screen for Shn3 inhibitor project, cell-based, Clone20-Shn3RL, cherry-picked (AID 624133); assay type: functional
[11] = target: FAD-linked sulfhydryl oxidase ALR (Homo sapiens, UniProt P55789); assay: inhibitors of human ALR sulfhydryl oxidase, dose response, biochemical, H2O2 detection, luminescence, cherry-pick (AID 493248)
Chain of FAD-linked sulfhydryl oxidase ALR (P55789 whole entry): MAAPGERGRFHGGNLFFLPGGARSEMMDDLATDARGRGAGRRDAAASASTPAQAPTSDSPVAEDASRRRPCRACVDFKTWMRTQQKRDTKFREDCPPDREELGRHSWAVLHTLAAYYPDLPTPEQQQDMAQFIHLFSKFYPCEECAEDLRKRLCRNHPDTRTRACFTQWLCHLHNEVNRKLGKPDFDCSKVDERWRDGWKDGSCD

[12] = target: T4, Polyadenylate-binding protein 1 (Homo sapiens, UniProt P11940); assay: PABP1 MLLE–PAM2 interaction inhibitors, dose response, miRNA deadenylation inhibitor project, biochemical, fluorescence polarization, Cy5-PAM2 peptide, secondary (AID 602260); assay type: functional; details: read-out: IC50_Mean
T4 sequence (P11940 whole entry): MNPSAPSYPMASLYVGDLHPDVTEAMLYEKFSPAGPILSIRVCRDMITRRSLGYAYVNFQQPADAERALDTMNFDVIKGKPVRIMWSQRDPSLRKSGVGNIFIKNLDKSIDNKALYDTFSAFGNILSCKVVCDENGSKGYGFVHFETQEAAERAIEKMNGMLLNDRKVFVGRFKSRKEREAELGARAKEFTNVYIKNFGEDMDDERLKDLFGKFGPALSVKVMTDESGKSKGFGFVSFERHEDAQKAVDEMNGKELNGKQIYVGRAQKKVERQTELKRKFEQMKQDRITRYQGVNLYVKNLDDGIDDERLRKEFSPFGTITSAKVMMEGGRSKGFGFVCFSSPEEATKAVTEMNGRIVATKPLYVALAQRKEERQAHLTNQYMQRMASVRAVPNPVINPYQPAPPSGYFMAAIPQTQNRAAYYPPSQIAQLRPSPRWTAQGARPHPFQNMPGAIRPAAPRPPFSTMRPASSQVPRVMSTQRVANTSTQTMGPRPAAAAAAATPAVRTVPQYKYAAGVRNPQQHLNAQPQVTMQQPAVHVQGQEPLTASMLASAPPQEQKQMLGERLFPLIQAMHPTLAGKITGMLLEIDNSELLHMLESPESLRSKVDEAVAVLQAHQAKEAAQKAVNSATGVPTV

[13] = target: T4, Polyadenylate-binding protein 1; assay: PABP1 MLLE–PAM2 binding inhibitor potency, dose response, biochemical, fluorescence polarization, FITC-PAM2 peptide (AID 602259); assay type: functional; details: read-out: IC50_Mean
[14] = target: Paired box protein Pax-8 (Homo sapiens, UniProt Q06710); assay: inhibitors of PAX8-driven TPO luciferase reporter, dose response, RMG-I cells, cherry-pick (AID 687027); assay type: functional, cell-based;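 further: luciferase reporter driven by Pax8 target thyroperoxidase promoter measured by SteadyGlo luminescence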
Chain of Paired box protein Pax-8 (Q06710 whole entry): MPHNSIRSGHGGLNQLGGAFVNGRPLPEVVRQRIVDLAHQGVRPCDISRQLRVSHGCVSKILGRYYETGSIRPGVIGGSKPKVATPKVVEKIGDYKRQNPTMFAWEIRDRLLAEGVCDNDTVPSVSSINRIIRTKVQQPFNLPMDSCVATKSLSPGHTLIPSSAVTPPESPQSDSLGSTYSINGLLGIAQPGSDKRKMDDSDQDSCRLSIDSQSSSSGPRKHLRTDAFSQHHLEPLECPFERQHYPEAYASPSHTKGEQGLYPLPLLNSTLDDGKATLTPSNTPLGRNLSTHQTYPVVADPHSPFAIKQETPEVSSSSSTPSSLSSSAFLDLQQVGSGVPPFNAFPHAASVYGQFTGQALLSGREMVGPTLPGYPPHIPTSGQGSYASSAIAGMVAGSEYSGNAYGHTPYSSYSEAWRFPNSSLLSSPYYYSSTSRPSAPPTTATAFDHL

[15] = NIH:OVCAR-3 ovarian cancer cell cytotoxicity, dose response, PAX8 inhibitor project, plate reader, dry powder samples (AID 743044); assay type: functional, cell-based
[16] = target: T5, High affinity choline transporter 1 (Homo sapiens, UniProt Q9GZV3); assay: CHT inhibitors, dose response, cell-based, 5-point CRC, membrane potential dye (AID 504840); assay type: functional
T5 sequence (Q9GZV3 whole entry): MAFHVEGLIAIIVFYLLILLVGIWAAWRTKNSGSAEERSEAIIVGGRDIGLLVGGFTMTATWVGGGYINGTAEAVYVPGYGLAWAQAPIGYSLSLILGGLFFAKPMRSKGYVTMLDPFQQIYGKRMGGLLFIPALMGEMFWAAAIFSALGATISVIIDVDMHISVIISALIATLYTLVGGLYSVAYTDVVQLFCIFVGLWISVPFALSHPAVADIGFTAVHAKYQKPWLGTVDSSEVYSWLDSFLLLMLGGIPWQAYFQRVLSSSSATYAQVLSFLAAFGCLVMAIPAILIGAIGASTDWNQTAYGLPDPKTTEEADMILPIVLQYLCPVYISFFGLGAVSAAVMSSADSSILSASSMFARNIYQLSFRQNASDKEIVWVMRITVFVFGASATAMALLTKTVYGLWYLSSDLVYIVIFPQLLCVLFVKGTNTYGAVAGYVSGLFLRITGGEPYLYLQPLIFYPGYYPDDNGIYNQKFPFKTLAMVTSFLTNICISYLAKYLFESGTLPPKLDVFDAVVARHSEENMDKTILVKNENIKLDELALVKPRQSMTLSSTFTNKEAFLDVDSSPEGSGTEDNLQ

[17] = inhibitors of intracellular T. cruzi replication, confirmation, NIH3T3 host cells, beta-gal luminescence (AID 2044); assay type: functional, cell-based;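 further: intracellular parasites grown in NIH/3T3 mouse fibroblasts as host cells; luminescent beta-galactosidase reporter signal from transgenic T. cruzi replicating inside host cells; inhibitors lower the luminescence signal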
[18] = cytotoxicity toward NIH3T3 fibroblasts, dose response, counter-screen, cell-based, ATP luminescence, mouse fibroblasts (AID 2010); assay type: functional;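 further: cells exposed to compound for about 90 hours before reading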
[19] = Luminescence Cell-Based Dose Retest to Confirm Inhibitors of Cancer Stem Cells. [Related pubchem assays (depositor defined):AID2717, AID2721]; assay type: functional; details: Homo sapiens
[20] = test system: INS1; assay: beta cell apoptosis inhibitors, cytokine rescue, dose response, luminescence, retest (AID 449756); assay type: functional, cell-based; details: Rattus norvegicus;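 further: cell death triggered by IL-1 beta plus TNF-alpha plus IFN-gamma mixture; protective hits raise ATP signal compared with cytokine alone wells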

Cc1ccc(Oc2ncc(CN3CC(C)OC(C)C3)s2)cc1 (stereo unspecified)
EC50 [1]: > 350 µM (not active) | EC50 [2]: > 350 µM (not active)

O=C(COC(=O)c1cc([N+](=O)[O-])ccc1N1CCOCC1)NCc1ccc(Cl)cc1Cl
IC50 [3]: 0.912 µM (active) | IC50 [4]: 1.05 µM (active)

c1ccc(-c2noc(CSc3nc4ccccc4o3)n2)cc1
IC50 [5]: 75.7 µM (inactive)

CCCCOC(=O)c1ccc(NC(=O)/C=C/c2cccs2)cc1
IC50 [5]: > 100 µM (inactive)

Clc1cc(Cl)cc(C2=NC(Cc3ccccc3)CO2)c1 (stereo unspecified)
EC50 [6]: 5.31 µM (active)

CCn1c(=O)c(C(=O)NNC(=O)c2ccccc2F)c(O)c2ccccc21
EC50 [7]: 4.54 µM (active) | EC50 [8]: 11.5 µM (active) | EC50 [6]: 6.68 µM (active)

Cc1ccc(NC(=S)N(Cc2cccs2)Cc2cc3cccc(C)c3nc2O)cc1
EC50 [1]: > 350 µM (not active) | EC50 [2]: > 350 µM (not active)

O=S(=O)(Nc1cccc(-n2cnnn2)c1)c1cnc(Cl)c(Cl)c1
IC50 [3]: 5.37 µM (active) | IC50 [4]: 8.01 µM (active)

C[C@H]1CCC/C=C/[C@@H]2C[C@H](O)C[C@H]2[C@@H](O)/C=C/C(=O)O1
AC50 [9]: 2.17 µM (active) | AC50 [10]: 1.7 µM (active)

O=C(NC1=NCCS1)c1csc2ccccc12
AC50 [11]: 0.582 µM (active) | IC50 [12]: > 66 µM (inactive) | IC50 [13]: > 66 µM (inactive)

CCN1CCN(Cc2cc(Br)cc(Br)c2O)CC1
EC50 [6]: 0.0667 µM (active) | AC50 [11]: 11.2 µM (active)

C[C@@H]1CN([C@H](C)CO)C(=O)c2cccc(NC(=O)Nc3cccc4ccccc34)c2O[C@H]1CN(C)C(=O)Nc1ccc(C(F)(F)F)cc1
AC50 [14]: 14.6 µM (active) | AC50 [15]: 64.2 µM (active)

CCCc1cc(O)c2c(C)cc(=O)oc2c1
IC50 [16]: 14.5 µM (active)

CC1(C)CC(=O)C=C(c2ccc(COC(=O)c3ccccc3)cc2)C1=O
IC50 [3]: 7.19 µM (active) | IC50 [4]: 3.75 µM (active)

CN(C)C(CNC(=O)Nc1cccc(Cl)c1)c1cccnc1 (stereo unspecified)
EC50 [6]: 0.0267 µM (active)

CC1(C)CC(NC(=O)CCC2CCCC2)CC(C)(C)N1
EC50 [1]: > 350 µM (not active) | EC50 [2]: > 350 µM (not active)

CCCS(=O)(=O)N1CCC(C(=O)NCc2cccnc2)CC1
IC50 [5]: > 100 µM (inactive)

CCn1c(SCc2nc(-c3ccccc3)no2)nnc1-c1ccco1
IC50 [16]: 13.6 µM (active)

c1ccc(CSc2ccc(-c3ccco3)nn2)cc1
IC50 [5]: > 100 µM (inactive)

O=C(NC1=NCCS1)c1cccc(NC(=O)c2ccco2)c1
EC50 [1]: > 350 µM (not active) | EC50 [2]: > 350 µM (not active)

Cc1cc(C)c(NC(=O)c2ccc(CN3CCc4ccccc4C3)cc2)c(C)c1
IC50 [16]: 12.9 µM (active)

COc1ccc(C(=O)N(C)CCCC2CCCC2)cc1OC1CCN(C(C)C)CC1
IC50 [16]: 12 µM (active)

Cc1cccc(C)c1NC(=O)c1ccc(CN2CCc3ccccc3C2)cc1
IC50 [16]: 18.2 µM (active)

Cc1ccc(N/C=C/C(=O)c2cccs2)cc1C
IC50 [5]: > 100 µM (inactive)

O=C(NC(=S)Nc1ccccn1)c1cc(-c2ccccc2)nc2ccccc12
EC50 [1]: > 350 µM (not active) | EC50 [2]: 47.1 µM (active)

Cc1ccc(C(=O)NCCNc2ncc(C(F)(F)F)cc2Cl)cc1[N+](=O)[O-]
IC50 [3]: 8.99 µM (active) | IC50 [4]: 9.8 µM (active)

CCN1CCN(CCCOc2ccc(-c3ccccc3)cc2)CC1
EC50 [1]: > 350 µM (not active) | EC50 [17]: 0.799 µM (active) | EC50 [2]: > 350 µM (not active) | EC50 [18]: 4.6 µM (active) | AC50 [19]: 4.69 µM (active)

Fc1ccccc1CSc1ccc(-c2ccco2)nn1
IC50 [5]: 64.6 µM (inactive)

O=C(NNS(=O)(=O)c1ccc([N+](=O)[O-])cc1)c1cnn(-c2ccccc2)c1-n1cccc1
IC50 [3]: 4.5 µM (active) | IC50 [4]: 4.35 µM (active)

CC#CCN(CC#CC)S(=O)(=O)c1ccc(-n2cnnn2)c(OC)c1
IC50 [16]: 3.16 µM (active)

O=C(N/N=C\c1c(O)ccc2ccccc12)c1ccc(Cn2cccn2)o1
EC50 [1]: 82 µM (active) | EC50 [2]: > 350 µM (not active) | AC50 [20]: 1.23 µM (active)

CC(C)(C)C(=O)Nc1nc(C2CCCN2S(=O)(=O)c2ccc(Cl)cc2)cs1 (stereo unspecified)
IC50 [3]: 9.08 µM (active) | IC50 [4]: 8.77 µM (active)
